According to US20240285642A1, “EGFR INHIBITOR FOR THE TREATMENT OF HEAD AND NECK CANCER” (NATCO PHARMA LIMITED, priority 2021, published 2024):
Where two headings read alike, the source gives them in different places.

Legend:
[1] = tested on: head and neck cancer cell line; settings: Parkinson et al 2007; cited from earlier work
[2] = tested on: recurrent and/or metastatic squamous cell carcinoma of the head and neck (R/M HNSCC); assay: Phase II randomized study: efficacy (PFS, ORR, RECIST 1.1); type: in vivo, human
Source text: Primary objective: The primary objective was to evaluate the efficacy of NRC-2694-A in combination with platinum plus paclitaxel regimen compared to platinum plus paclitaxel regimen alone in terms of progression free survival (PFS) in patients with recurrent and/or metastatic squamous cell carcinoma of the head and neck (R/M HNSCC).
Secondary objectives: The secondary objective was (a) to compare the objective response rate in patients with R/M HNSCC treated with NRC-2694-A in combination with platinum plus paclitaxel regimen compared to platinum plus paclitaxel regimen alone and (b) to compare the safety and tolerability of the two regimens.
The study was an open-label, prospective, randomized, active controlled, multicentric phase-II study of NRC-2694-A in patients with histologically/cytologically confirmed HNSCC with radiological progression (recurrence and/or metastasis).
Patients between 18 and 65 years of age with life expectancy≥3 months having recurrent and/or metastatic disease for whom cisplatin/carboplatin plus paclitaxel regimen was planned were eligible for the study. Those who fit all the inclusion and exclusion criteria were randomized to receive either chemotherapy+NRC-2694-A (study drug arm) or chemotherapy alone (control arm). • Arm-I (study drug arm): NRC-2694-A+cisplatin/carboplatin and paclitaxel • Arm-II (control arm): cisplatin/carboplatin and paclitaxel
During the study, 300 mg NRC-2694-A was administered once daily in the morning with or without food with 240 ml of water. The dose of cisplatin was 100 mg/m^2 of body surface area as intravenous infusion over an hour. Alternatively, the dose of carboplatin was based on the target area under the curve (AUC) equivalent to 5 mg/mL/min, as an infusion over 1 hour. The choice of platinum compound was per the investigator's discretion and was dependent on the type of platinum received during prior therapy, avoiding repetition. Paclitaxel was given at a dose of 175 mg/m^2 of body surface area as an infusion over 3 hours. • Monotherapy: After completion of 6 cycles of chemotherapy in control arm or in study drug arm, patients received 300 mg of NRC-2694-A once daily as a monotherapy.

[3] = Phase I clinical study: safety, MTD and DLT; type: in vivo
Description: An open label, prospective, non-randomized, multicentre, dose escalation study was performed. The starting dose selected for this study was 100 mg/day and the maximum dose received was 500 mg/day.
Safety: Assessments were performed within 7 days before administration of study medication and subsequently on Days 12, 18, 24, 30, 45, 60, 75 and 90. However, for assessing the DLT and MTD first 30 day safety data was considered.

[4] = Phase I clinical study: plasma pharmacokinetics (LC-MS/MS); type: in vivo, human; settings: 100 mg/day to 500 mg/day
Description: Secondary: To evaluate the single and multiple dose pharmacokinetics and anti-tumour activity of NRC-2694-A. An open label, prospective, non-randomized, multicentre, dose escalation study was performed. The starting dose selected for this study was 100 mg/day and the maximum dose received was 500 mg/day. Eligible subjects were housed in a unit of the hospital for 12 days, beyond which patients who tolerated the drug were treated on out-patient (ambulatory) basis. Pharmacokinetic Evaluation: Estimation of NRC-2694 in plasma was done using a validated LC-MS/MS method. Based on the plasma concentration data, non-compartmental pharmacokinetic variables viz. area under the curve (AUC), peak plasma concentration (Cmax), time to peak plasma concentration (Tmax), and elimination rate constant, volume of distribution, half-life and clearance were calculated for single dose (on Day 1) as well as at steady state (on Day 12). Blood samples at pre-dose, 0.5, 1, 1.5, 2, 2.5, 3, 4, 6, 8, 12 and 24 hrs were collected in K2 EDTA prefilled vacutainers.

[5] = tested on: recurrent squamous cell carcinoma of the head and neck; assay: Phase I clinical study: tumour evaluation per RECIST 1.1; type: in vivo, human
Description: A Phase I clinical study was conducted to evaluate the safety, pharmacokinetics and anti-tumour activity of NRC-2694-A (NRC-2694 dihydrochloride) in patients with recurrent squamous cell carcinoma of the head and neck.
An open label, prospective, non-randomized, multicentre, dose escalation study was performed. The starting dose selected for this study was 100 mg/day and the maximum dose received was 500 mg/day. Eligible subjects were housed in a unit of the hospital for 12 days, beyond which patients who tolerated the drug were treated on out-patient (ambulatory) basis.
Tumour Evaluation: Change in the size of evaluable tumour from base line was evaluated as per RECIST criteria (version 1.1).

R/M HNSCC = settings: cited from earlier work
[6] = Stage-II monotherapy, among the 4 patients with partial response in Stage-I

## C#Cc1cccc(Nc2ncnc3cc(OC)c(OCCCN4CCOCC4)cc23)c1 [NRC-2694, (3-Ethynyl-phenyl)-[7-methoxy-6-(3-morpholin-4-yl-propoxy)-quinazolin-4-yl]-amine]
[1]
  inhibition of growth of a head and neck cancer cell line grafted into athymic female mice: low to moderate inhibition

## C#Cc1cccc(Nc2ncnc3cc(OC)c(OCCCN4CCOCC4)cc23)c1.Cl.Cl [NRC-2694-A, N-(3-ethynylphenyl)-7-methoxy-6-(3-morpholinopropoxy) quinazolin-4-amine dihydrochloride]
[2]; Stage-II monotherapy 300 mg once daily, Arm-I patients with complete response in Stage-I
  patients in whom complete response was maintained: 2 patients
[2]; [6]
  patients continuing to have partial response: one
  patients with progressive disease: 1 patients
  patients with stable disease: 2 patients
[2]; Stage-II monotherapy, patient with progressive disease in Stage-I
  patients continuing to have progressive disease: 1 patients
[2]; Stage-II monotherapy, patients from Arm-II with partial response and stable disease earlier
  patients achieving complete response: 2 patients
[2]; Stage-II monotherapy, patients with stable disease in Stage-I
  patients continuing to have stable disease: Two
[3]; once daily administration, Phase I
  safety profile: tolerable safety profile
[3]; oral once daily, dose escalation 100 to 500 mg/day, first 30 day safety data
  MTD (maximum tolerated dose): 400 mg/day
[4]; Day-1 and Day-12 concentrations
  plasma concentration versus dose: dose dependent increase
[4]; patients
  relationship of pharmacokinetics to dose: Dose proportional relationship
[5]; Subject No. 0202, Head and Neck, 120 days completed
  Outcome (tumour evaluation): Stable Disease
[5]; Subject No. 0207, Head and Neck, 79 days completed
  Outcome (tumour evaluation): Stable Disease
[5]; Subject No. 0211, Head and Neck, 120 days completed
  Outcome (tumour evaluation): Stable Disease
[5]; Subject No. 0212, Head and Neck, 120 days completed
  Outcome (tumour evaluation): Partial Response
[5]; Subject No. 0216, Head and Neck, 120 days completed
  Outcome (tumour evaluation): Stable Disease
[5]; patients with recurrent squamous cell carcinoma of the head and neck, oral once daily
  anti-tumour activity (effect on tumour size): tumour size reduction or tumour size stasis

## Pembrolizumab: approved monoclonal antibody, immunotherapy for R/M HNSCC
R/M HNSCC; Pembrolizumab alone, CPS>20 population
  ORR: 26%
R/M HNSCC; combination of Pembrolizumab and platinum-based chemotherapy
  ORR: 36%
